Experimental data reported in patent publication US20160113932A1, “TREATMENT OF CANCERS USING PI3 KINASE ISOFORM MODULATORS” (INFINITY PHARMACEUTICALS, INC., priority 2013, published 2016).

What was measured:
[1] = biological target: PI3K δ (Homo sapiens, UniProt O00329); assay: PI3K lipid kinase inhibition assay (TLC or HTRF), PI3K δ; format: biochemical; parameters: purchased Upstate; details: In Vitro
Description: (§1) Other commercial kits or systems for assaying PI3K activities are available. […] An exemplary system is PI 3-Kinase (human) HTRF™ Assay from Upstate.

[2] = biological target: T1, PI3K α (Homo sapiens, UniProt P42336); assay: PI3K lipid kinase inhibition assay (TLC or HTRF), PI3K α; format: biochemical; details: In Vitro
T1 construct: purchased Upstate
Description: as §1

[3] = biological target: T2, PI3K β (Homo sapiens, UniProt P42338); assay: PI3K lipid kinase inhibition assay (TLC or HTRF), PI3K β; format: biochemical; details: In Vitro
T2 construct: purchased Upstate
Description: as §1

[4] = biological target: T3, PI3K γ (Homo sapiens, UniProt P48736); assay: PI3K lipid kinase inhibition assay (TLC or HTRF), PI3K γ; format: biochemical; details: In Vitro
T3 construct: purchased Sigma
Description: as §1

[5] = tested on: MJ; assay: CTCL cytotoxicity, 72 hours; format: cell-based; details: MJ cells
Method: MJ and HuT78 cells were grown in IMDM 20% FBS, and HH cells were grown in RPMI 10% FBS.

[6] = tested on: Loucy; assay: T-ALL growth inhibition; format: cell-based, human; details: Loucy ALL cells, various concentrations
Method: To further explore the individual contributions of the varying PI3K isoforms on T-ALL cell growth, Loucy ALL cells were treated with doxorubicin and various PI3K inhibitors as shown in FIG. 32 at various concentrations as denoted in the figure.

Chain of PI3K δ (O00329 whole entry): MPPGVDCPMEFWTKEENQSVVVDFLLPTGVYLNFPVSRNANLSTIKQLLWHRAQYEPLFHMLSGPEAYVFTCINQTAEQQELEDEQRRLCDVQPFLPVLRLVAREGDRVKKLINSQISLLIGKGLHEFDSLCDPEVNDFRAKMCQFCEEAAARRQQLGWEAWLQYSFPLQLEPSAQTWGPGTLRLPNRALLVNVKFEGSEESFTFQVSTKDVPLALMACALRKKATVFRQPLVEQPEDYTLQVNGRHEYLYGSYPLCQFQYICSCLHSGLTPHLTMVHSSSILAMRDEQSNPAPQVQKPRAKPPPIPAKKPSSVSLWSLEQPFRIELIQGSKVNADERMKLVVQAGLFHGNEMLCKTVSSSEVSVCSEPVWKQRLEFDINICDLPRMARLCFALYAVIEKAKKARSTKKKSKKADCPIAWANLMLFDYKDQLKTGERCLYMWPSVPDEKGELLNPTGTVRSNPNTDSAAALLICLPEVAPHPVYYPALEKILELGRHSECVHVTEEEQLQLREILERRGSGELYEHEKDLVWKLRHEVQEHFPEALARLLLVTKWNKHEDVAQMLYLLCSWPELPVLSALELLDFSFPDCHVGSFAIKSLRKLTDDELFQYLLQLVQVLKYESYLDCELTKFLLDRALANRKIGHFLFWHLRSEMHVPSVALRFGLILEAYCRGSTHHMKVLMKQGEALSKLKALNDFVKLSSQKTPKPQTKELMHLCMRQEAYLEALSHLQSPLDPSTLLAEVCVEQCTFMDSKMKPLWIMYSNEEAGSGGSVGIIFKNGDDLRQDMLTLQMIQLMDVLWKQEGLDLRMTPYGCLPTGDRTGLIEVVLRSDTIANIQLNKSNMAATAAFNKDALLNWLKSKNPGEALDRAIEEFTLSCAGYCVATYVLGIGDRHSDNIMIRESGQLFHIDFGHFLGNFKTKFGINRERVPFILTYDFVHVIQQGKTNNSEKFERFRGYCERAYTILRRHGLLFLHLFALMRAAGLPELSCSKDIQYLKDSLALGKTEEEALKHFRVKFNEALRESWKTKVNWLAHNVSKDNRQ
Chain of PI3K δ (P27986 whole entry partner): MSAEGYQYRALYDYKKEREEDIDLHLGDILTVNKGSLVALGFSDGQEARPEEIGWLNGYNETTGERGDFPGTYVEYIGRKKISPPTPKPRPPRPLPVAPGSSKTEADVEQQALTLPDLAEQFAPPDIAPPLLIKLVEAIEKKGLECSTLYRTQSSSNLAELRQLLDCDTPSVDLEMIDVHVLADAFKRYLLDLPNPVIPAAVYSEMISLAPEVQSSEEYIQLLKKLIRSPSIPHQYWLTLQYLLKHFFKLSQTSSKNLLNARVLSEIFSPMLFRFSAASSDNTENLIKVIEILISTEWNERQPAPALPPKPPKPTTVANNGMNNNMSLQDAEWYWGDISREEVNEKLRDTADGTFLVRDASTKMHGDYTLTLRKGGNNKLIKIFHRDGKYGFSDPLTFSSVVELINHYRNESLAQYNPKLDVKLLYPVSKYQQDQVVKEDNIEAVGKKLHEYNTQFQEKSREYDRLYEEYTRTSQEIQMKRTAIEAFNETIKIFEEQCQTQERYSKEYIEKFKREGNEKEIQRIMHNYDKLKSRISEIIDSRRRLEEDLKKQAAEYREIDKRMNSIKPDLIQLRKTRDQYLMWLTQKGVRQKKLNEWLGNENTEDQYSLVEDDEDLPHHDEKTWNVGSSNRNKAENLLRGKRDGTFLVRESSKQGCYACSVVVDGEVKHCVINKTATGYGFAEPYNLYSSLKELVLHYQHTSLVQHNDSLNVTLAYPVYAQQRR
T1 sequence (P42336 whole entry): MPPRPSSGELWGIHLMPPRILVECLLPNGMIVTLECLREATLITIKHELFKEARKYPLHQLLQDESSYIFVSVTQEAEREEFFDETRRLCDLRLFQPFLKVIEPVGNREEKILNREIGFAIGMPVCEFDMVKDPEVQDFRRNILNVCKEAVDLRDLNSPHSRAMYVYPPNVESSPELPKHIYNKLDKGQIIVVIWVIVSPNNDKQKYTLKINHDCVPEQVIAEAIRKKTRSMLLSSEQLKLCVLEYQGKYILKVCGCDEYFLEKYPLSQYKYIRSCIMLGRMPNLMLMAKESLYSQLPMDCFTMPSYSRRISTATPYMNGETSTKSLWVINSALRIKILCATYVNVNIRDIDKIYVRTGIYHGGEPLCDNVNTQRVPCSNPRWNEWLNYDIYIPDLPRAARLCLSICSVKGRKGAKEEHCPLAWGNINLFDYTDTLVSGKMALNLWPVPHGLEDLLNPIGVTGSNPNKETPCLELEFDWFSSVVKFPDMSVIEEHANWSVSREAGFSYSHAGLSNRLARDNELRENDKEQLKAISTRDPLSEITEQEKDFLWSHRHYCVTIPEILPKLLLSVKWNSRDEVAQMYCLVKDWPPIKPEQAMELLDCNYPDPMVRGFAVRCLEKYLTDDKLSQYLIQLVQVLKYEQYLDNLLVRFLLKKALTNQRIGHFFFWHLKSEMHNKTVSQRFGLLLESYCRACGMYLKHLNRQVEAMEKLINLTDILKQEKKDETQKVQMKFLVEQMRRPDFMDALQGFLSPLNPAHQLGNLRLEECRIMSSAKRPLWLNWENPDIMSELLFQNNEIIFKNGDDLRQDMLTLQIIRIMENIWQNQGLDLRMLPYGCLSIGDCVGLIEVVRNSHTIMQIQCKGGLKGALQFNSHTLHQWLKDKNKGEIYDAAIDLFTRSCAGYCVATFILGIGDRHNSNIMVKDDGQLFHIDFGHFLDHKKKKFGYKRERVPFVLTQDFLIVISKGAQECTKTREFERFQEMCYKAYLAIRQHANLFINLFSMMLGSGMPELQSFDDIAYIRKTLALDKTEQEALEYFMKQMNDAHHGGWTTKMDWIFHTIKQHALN
T1 sequence (P27986 whole entry partner): as the sequence (P27986 whole entry partner) above
T3 sequence (P48736 whole entry): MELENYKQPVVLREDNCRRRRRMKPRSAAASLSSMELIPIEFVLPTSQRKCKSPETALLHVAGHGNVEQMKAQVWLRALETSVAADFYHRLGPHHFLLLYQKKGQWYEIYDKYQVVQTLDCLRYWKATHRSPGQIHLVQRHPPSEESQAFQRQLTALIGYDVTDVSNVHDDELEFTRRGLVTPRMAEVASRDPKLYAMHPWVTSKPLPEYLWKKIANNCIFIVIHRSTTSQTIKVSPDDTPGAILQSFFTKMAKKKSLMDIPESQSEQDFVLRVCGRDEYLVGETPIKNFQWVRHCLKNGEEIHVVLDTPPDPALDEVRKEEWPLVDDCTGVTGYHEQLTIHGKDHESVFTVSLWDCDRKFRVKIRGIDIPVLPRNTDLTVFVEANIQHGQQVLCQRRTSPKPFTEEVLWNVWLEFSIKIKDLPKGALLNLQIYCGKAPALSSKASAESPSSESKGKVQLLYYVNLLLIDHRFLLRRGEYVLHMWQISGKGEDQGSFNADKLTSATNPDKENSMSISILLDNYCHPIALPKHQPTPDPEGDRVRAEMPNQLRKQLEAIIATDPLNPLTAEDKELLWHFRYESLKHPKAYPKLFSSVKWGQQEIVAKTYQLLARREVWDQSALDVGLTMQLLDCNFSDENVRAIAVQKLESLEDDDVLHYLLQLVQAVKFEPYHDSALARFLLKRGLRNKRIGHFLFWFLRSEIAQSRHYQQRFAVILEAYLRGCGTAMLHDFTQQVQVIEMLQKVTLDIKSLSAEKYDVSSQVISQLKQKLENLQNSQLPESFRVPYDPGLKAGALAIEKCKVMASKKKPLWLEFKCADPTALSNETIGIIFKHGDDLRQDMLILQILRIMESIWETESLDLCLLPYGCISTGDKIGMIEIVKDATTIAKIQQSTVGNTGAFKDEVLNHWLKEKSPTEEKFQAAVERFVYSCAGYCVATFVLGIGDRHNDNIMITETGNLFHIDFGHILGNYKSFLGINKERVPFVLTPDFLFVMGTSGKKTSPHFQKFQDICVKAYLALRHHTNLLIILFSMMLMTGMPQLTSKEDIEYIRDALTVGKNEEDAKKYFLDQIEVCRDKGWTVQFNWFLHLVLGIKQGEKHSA
T2 sequence (P42338 whole entry): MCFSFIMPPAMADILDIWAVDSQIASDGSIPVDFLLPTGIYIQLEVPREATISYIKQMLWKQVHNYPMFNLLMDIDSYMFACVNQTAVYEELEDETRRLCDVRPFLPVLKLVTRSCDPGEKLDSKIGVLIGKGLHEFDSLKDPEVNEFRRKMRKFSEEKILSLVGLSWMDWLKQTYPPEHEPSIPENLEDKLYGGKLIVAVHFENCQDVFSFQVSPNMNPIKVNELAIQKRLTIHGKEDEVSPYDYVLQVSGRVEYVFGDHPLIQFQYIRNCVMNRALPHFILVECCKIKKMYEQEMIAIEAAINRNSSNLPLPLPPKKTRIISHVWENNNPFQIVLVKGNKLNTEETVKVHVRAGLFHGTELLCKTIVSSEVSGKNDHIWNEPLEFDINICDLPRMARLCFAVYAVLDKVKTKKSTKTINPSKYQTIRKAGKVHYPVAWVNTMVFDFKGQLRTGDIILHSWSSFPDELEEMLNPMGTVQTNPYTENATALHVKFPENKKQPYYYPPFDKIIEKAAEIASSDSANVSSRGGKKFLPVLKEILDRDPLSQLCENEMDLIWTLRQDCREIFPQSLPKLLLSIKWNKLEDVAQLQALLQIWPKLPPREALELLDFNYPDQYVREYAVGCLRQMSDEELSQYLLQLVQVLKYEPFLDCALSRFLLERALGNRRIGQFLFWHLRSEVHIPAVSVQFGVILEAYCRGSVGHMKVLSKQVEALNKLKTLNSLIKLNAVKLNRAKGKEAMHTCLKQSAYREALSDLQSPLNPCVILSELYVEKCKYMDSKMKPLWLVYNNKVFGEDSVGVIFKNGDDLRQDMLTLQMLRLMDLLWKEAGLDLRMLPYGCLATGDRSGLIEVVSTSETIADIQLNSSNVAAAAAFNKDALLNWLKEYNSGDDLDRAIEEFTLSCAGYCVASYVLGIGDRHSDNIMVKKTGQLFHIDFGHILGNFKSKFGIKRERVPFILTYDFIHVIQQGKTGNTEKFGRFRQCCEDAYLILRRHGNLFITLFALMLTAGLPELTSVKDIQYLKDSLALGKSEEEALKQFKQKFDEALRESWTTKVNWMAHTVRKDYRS
T2 sequence (P27986 whole entry partner): as the sequence (P27986 whole entry partner) above

Structure (SMILES)	IC50 [1] [nM]	IC50 [2] [nM]	other results
Cc1cccc2cc(Cn3nc(-c4ccc(Cl)c(O)c4)c4c(N)ncnc43)n(C(C)C)c(=O)c12 [Compound 123]	< 100	–	–
Cc1cccc2cc(Cn3nc(I)c4c(N)ncnc43)n(C(C)C)c(=O)c12 [Compound 129]	< 10000	–	–
CC(=O)Nc1nc2ccc(-c3nn(Cc4cc5cccc(C)c5c(=O)n4-c4ccccc4C)c4ncnc(N)c34)cc2s1 [Compound 168]	–	< 10000	–
Cc1cccc2cc(Cn3nc(-c4ccc5nc(N)oc5c4)c4c(N)ncnc43)n(-c3ccccc3)c(=O)c12 [Compound 235]	–	< 10000	IC50 [3]: < 10000 nM; IC50 [4]: < 100 nM
Cc1cccc2cc(C(C)Nc3nc(Cl)ncc3N)n(-c3ccccc3)c(=O)c12 (stereo not drawn) [Compound 322]	> 10000	> 10000	IC50 [3]: > 10000 nM; IC50 [4]: > 10000 nM
CC[C@H](Nc1ncnc2[nH]cnc12)c1nc2cccc(F)c2c(=O)n1-c1ccccc1 [GS-1101, (S)-2-(1-(9H-purin-6-ylamino)propyl)-5-fluoro-3-phenylquinazolin-4(3H)-one, reference compound]	–	–	cytotoxicity, sensitivity [5]: resistant
COc1cccc2c1C(=O)c1c(O)c3c(c(O)c1C2=O)C[C@@](O)(C(=O)CO)C[C@@H]3O[C@H]1C[C@H](N)[C@H](O)[C@H](C)O1 [doxorubicin, reference compound]	–	–	percent inhibition of Loucy cells with dose [6]: different pattern
